Data published in PubChem BioAssay (NCI).
Several values for one entry are separate records, joined by “and”; a condition that tells them apart may be missing. Identical values can stand only once.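 Cultured in 96-well plates, cells were exposed to test compound for 48 hours across five concentrations. At the GI50, growth is halved. TGI is the concentration that stops growth completely.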

How the values were obtained:
Experiment in all cases: DTP human tumour cell line panel, 48 h
UACC-62 melanoma = system: UACC-62 melanoma
COLO 205 colon = system: COLO 205 colon
CAKI-1 renal = system: CAKI-1 renal
SN12C renal = system: SN12C renal
RXF 393 renal = system: RXF 393 renal
MALME-3M melanoma = system: MALME-3M melanoma
NCI-H23 lung = system: NCI-H23 lung
HS 578T breast = system: HS 578T breast
NCI-H522 lung = system: NCI-H522 lung
A498 renal = system: A498 renal

SMILES | GI50 (UACC-62 melanoma) | TGI (UACC-62 melanoma) | GI50 (COLO 205 colon) | TGI (COLO 205 colon) | GI50 (CAKI-1 renal) | TGI (CAKI-1 renal) | GI50 (SN12C renal) | TGI (SN12C renal) | GI50 (RXF 393 renal) | TGI (RXF 393 renal) | GI50 (MALME-3M melanoma) | TGI (MALME-3M melanoma) | GI50 (NCI-H23 lung) | TGI (NCI-H23 lung) | GI50 (HS 578T breast) | TGI (HS 578T breast) | GI50 (NCI-H522 lung) | TGI (NCI-H522 lung) | GI50 (A498 renal) | TGI (A498 renal)
O=[N+]([O-])c1ccc(N2CCOCC2)c2c1no[n+]2[O-] | 1.21 µM | 3.87 µM | 0.906 µM | 2.24 µM | 0.443 µM | 1.89 µM | 1.2 µM | 2.85 µM | 1.49 µM | 4.01 µM | 1.52 µM | 4.28 µM | 1.08 µM | 4.83 µM | 1.15 µM | 4.17 µM | 0.649 µM | 2.33 µM | 1.17 µM | 3.2 µM
O=C(/C=C/c1cccc(O)c1)c1cccc(-n2cc(-c3ccccc3)[nH]c2=O)c1 | 2.82 µM | 9.54 µM | 1.96 µM | 3.85 µM | 4.95 µM | 10.5 µM | 3.01 µM | 11.3 µM | 1.83 µM | 3.51 µM | 3.53 µM | 10.9 µM | 3.64 µM | 14.4 µM | 5.7 µM | 44.6 µM | 1.5 µM | 4.3 µM | 12.3 µM | 24.9 µM
Oc1c(I)cc(I)c2cccnc12 | 3.09 µM | 15.6 µM | 3.6 µM | 17 µM | 3.17 µM | 14.2 µM | 6.67 µM | 45.5 µM | 11.4 µM | 29.8 µM | 0.573 µM | 27.6 µM | 2.19 µM | 9.52 µM | 7.24 µM | > 100 µM | 2.96 µM | > 100 µM | 12.2 µM | 58 µM
CSc1nc2sc3c(c2c(=O)n1-c1ccc(C(C)C)cc1)CCC(=O)C3 | 1.81 µM | 3.49 µM | 1.89 µM | 3.63 µM | 2.38 µM | 6.03 µM | 2.45 µM | 6.02 µM | 2.21 µM | 5.37 µM | 3.11 µM | 8.25 µM | 2.2 µM | 4.53 µM | 2.96 µM | 9.64 µM | 1.96 µM | 3.72 µM | 20.4 µM | 82.7 µM
O=C(O)CCC(=O)c1ccc2sc3ccccc3c2c1 | – | > 100 µM | – | > 100 µM | – | > 100 µM | – | > 100 µM | – | > 100 µM | – | > 100 µM | – | > 100 µM | – | > 100 µM | – | > 100 µM | – | > 100 µM
CC1(C)CC(=O)C2=C(C1)OC(N)=C(c1nc(-c3ccccc3)cs1)C2c1ccc(Br)cc1 (centres undefined) | 30.5 µg/mL | > 150 µg/mL | 41.8 µg/mL | > 150 µg/mL | > 150 µg/mL | > 150 µg/mL | 51.8 µg/mL | > 150 µg/mL | 42.5 µg/mL | 126 µg/mL | > 150 µg/mL | > 150 µg/mL | 53.7 µg/mL | > 150 µg/mL | 38.5 µg/mL | > 150 µg/mL | 42.1 µg/mL | > 150 µg/mL | 66.6 µg/mL | > 150 µg/mL
C=CCN1CC(=O)N2[C@@H](Cc3ccc(O)cc3F)C(=O)N(Cc3cccc(N4CC(N5CCN(CC)CC5)C4)n3)C[C@@H]2N1C(=O)NCc1ccccc1 | 0.0539 µM | 10.5 µM | 0.028 µM | 0.262 µM | 0.0507 µM | 0.504 µM | 0.111 µM | > 100 µM | 0.231 µM | 6.85 µM | 0.0292 µM | 0.211 µM | 0.0756 µM | > 100 µM | 0.0279 µM | 0.15 µM | 0.0284 µM | – | < 0.0118 µM | 0.0666 µM
Cn1cc(C2=C(c3cccc(OC[C@@H](O)CO)c3)C(=O)NC2=O)c2ccccc21 | > 25 µM | > 25 µM | > 18.3 µM | > 25 µM | 15.3 µM | > 25 µM | > 23 µM | > 25 µM | 2.08 µM | > 25 µM | > 25 µM | > 25 µM | > 25 µM | > 25 µM | 1.39 µM | > 25 µM | 24.8 µM | > 25 µM | 0.656 µM | > 5.77 µM
COC(=O)CCCCC(=O)c1c(C)[nH]c(/C=C2\N=C(c3ccc[nH]3)C=C2OC)c1C | 1.25 µM | 2.69 µM | 1.64 µM | 3.29 µM | 1.03 µM | 2.49 µM | 1.1 µM | 2.47 µM | 0.524 µM | 2 µM | 0.746 µM | 2.16 µM | 1.46 µM | 3.6 µM | 1.02 µM | 3.05 µM | 0.673 µM | 2.19 µM | 2.49 µM | 6.39 µM
O=C(O)c1cccc(C(=O)O)c1S(=O)Cc1ccccc1 (centres undefined) | – | > 100 µM | – | > 100 µM | – | > 100 µM | – | > 100 µM | – | > 100 µM | – | > 100 µM | – | > 100 µM | – | > 100 µM | – | > 100 µM | – | > 100 µM
Cc1cccc2c3c(sc12)C(c1ccc(Cl)cc1)C(C#N)=C(N)O3 (centres undefined) | 0.327 µM | 11.3 µM | 0.435 µM | 4.52 µM | 0.295 µM | 14.5 µM | 0.544 µM | 11.2 µM | 0.215 µM | 0.649 µM | 0.653 µM | 20 µM | 0.436 µM | 10.4 µM | 0.274 µM | 1.48 µM | 0.314 µM | 4.95 µM | 0.211 µM | 1.2 µM
O=C1OC(C(O)CO)C(O)=C1O (centres undefined) | 1670 µM and 2050 µM | 3050 µM and > 5130 µM | 2030 µM and 1830 µM | 3750 µM and 3420 µM | 1880 µM and 2150 µM | 3350 µM and 4620 µM | 1460 µM and 1540 µM | 2810 µM and 3070 µM | 1650 µM and 1750 µM | 3080 µM and 3400 µM | 1540 µM and 1760 µM | 2990 µM and 3550 µM | 2920 µM and > 4420 µM | > 10000 µM | 2990 µM and > 10000 µM | 7960 µM and > 10000 µM | 1590 µM and 293 µM | 3380 µM and > 3070 µM | 4650 µM and > 10000 µM | > 10000 µM
CC(C)(O)CNc1nc(Nc2ccnc(C(F)(F)F)c2)nc(-c2cccc(C(F)(F)F)n2)n1 | 16.4 µM | 32.6 µM | 18.4 µM | 38.7 µM | 29.6 µM | > 100 µM | 19.1 µM | 54.4 µM | 20.7 µM | 48.4 µM | 21.1 µM | 43.3 µM | 18.1 µM | 42.8 µM | 27.8 µM | 75.9 µM | 18.6 µM | 49.3 µM | 16.1 µM | 37.2 µM
